One experiment deals with p38 and NF-kB. Nature of the experiment: Analysis of p38 and NF-kB activation on lung DCs. In kind it is cell-based, murine. The procedure:
P38 and NF-kB were activated on lung DCs by exposure for 20 minutes at 37° C. to Aspergillus conidia and/or 100 ng/ml TA1. Blots of cell lysates were incubated with rabbit polyclonal Abs recognizing either the unphosphorylated form of p38 MAPK, or the double-phosphorylated (Thr-180/Tyr-182) p38 MAPK, or Abs specific for the Rel A, 65 kDa DNA binding subunit of human NF-kB followed by horseradish peroxidase-conjugated goat anti-rabbit IgG, as per manufacturer's instructions. Blots were developed with an Enhanced Chemiluminescence detection kit. Bands were visualized after exposure of the blots to a Kodak RX film. To ensure similar protein loading in each lane, the phospho blots were stripped and the membranes were reprobed with Abs against p38 and NF-kB.

For experiment [1], the system named is human MDC and PDC subsets. Nature of the experiment: Activation of human MDC and PDC subsets: phagocytosis, phenotype, cytokine release. Type of experiment: cell-based. The note with it: in response to conidia. As for the experimental part:
Blood CD 11c^+ myeloid DCs (MDCs) were generated from CD 14^+ mononuclear cells by magnetic cell sorting and cultured for 5 days in Iscove's modified medium, containing 10% fetal bovine serum, 50 micromolar 2-mercaptoethanol, sodium pyruvate (1 mM), 2 mM L-glutamine, HEPES (10 mM), and 50 micrograms/ml gentamycin in the presence of 50 ng/ml rHuman GM-CSF and 200 U/ml rHuman IL-4. Immature MDCs were cultured for 24 hours with 1000 ng/ml trimeric human CD40 ligand-leucine-zipper fusion protein to obtain mature DCs. CD 123^+ plasmacytoid DCs (PDCs) were isolated using the BDCA-4 isolation kit. Purity of CD 123^+ cells was >96%. For mature PDCs, immature DCs were cultured with the trimeric human CD40 ligand as above and 10 ng/ml IL-3. […] The expression of HLA Class II, CD80 and CD86 was high in both immature and mature DCs. Murine lung CD 11c^+ DCs (between 5 to 7% positive for CD8alpha and between 30 to 35% positive for Gr-1) were isolated by magnetic cell sorting. For phagocytosis, DCs were pre-exposed to 100 ng/ml TA1 for 60 minutes and subsequently incubated at 37° C. with Aspergillus conidia for an additional 60 minutes. The percentage of internalization was calculated and photographs were taken. In assessing functional maturation and cytokine determination, purified DCs were resuspended in Iscove's medium (with no serum but with polymixin B, to avoid non-specific activation by serum components and endotoxin) and pulsed with 100 ng/ml TA1 for 24 hours either alone or together with TLR ligands or unopsonized Aspergillus conidia. Cell surface phenotype was assessed by reacting samples with FITC- or PE-conjugated rat anti-mouse antibodies. Unrelated hisotype matched antibodies were used as control. The levels of TNF-alpha, IL-10, IL-12 p70, IFN-alpha and IL-8 in culture supernatants were determined by Kit ELISAs. The detection limits (pg/ml) of the assays were <3 (human) and <32 (murine) for TNF-alpha, <12 (murine) and <5 (human) for IL-10, <16 (murine) and <3 (human) for IL-12 p70 and <25 (human) IL-8. For human IFN-alpha <3 ng/ml. For enumeration of cytokine-producing cells, an ELISPOT assay was used on purified CD4^+ T cells and DCs from lungs.

Another experiment deals with murine DCs. Put plainly: RT-PCR of TLR expression on DCs. Type of experiment: cell-based. As for the experimental part: Synthesis and PCR of cDNA were performed with forward and reverse PCR primers and the cycles used for murine and human TLRs and HPRT. The synthesized PCR products were separated by electrophoresis on 2% agarose gel and visualized by ethidium bromide staining.

In another experiment the test system is A. fumigatus. Nature of the experiment: BMT mice with invasive aspergillosis: survival, fungal growth in lungs (chitin assay), lung histology. Type of experiment: in vivo. Conditions: G-CSF 250 microgram/kg intravenously. The text has this: For infection with A. fumigatus, mice were intranasally injected for 3 consecutive days with a suspension of 2×10^7 conidia/20 microliter saline. For the quantification of fungal growth in the lungs, the chitin assay was used. The chitin content was expressed as micrograms of glucosamine per organ. The glucosamine content of lungs from uninfected mice was used as a negative control ranging between 0.80 and 2.25 microgram glucosamine/organ. For histological analysis, lungs were excised and immediately fixed in formalin. Sections (3 to 4 micron) of paraffin-embedded tissues were stained with the periodic acid-Schiff procedure. Thymosin alpha 1 (TA1) and the scrambled polypeptide are as purified sterile lyophilized acetylated polypeptides with endotoxin levels less than 0.03 pg/ml, by a standard limulus lysate assay. The sequences were as follows: Ac-[…]O (Thymosin alpha 1, SEQ ID NO.: 1) and Ac-[…]OH ([…]). Their lyophilized powders were reconstituted in sterile water.
The treatments were as follows; in BMT-mice, TA1, at different doses administered intraperitoneally, sthymosin alpha 1, 400 microgram/kg administered intraperitoneally or human recombinant G-CSF 250 microgram/kg administered intravenously, were given daily beginning the day of the BM infusion, in concomitance with the infection and continuing for an additional 3 days. Amphotericin B was given daily for 3 days in concomitance with the infection, at a dose of 4000 microgram/kg, administered intraperitoneally. This dose would cure IA in cyclophosphamide-treated mice. Cyclophosphamide, 150 mg/kg administered intraperitoneally, was given a day before the infection. In cyclophosphamide-treated mice, 400 microgram/kg TA1 was given intraperitoneally for 5 consecutive days beginning the day of the infection.
C57BL6 mice were exposed to a lethal dose of 9 Gy and infused with T cell-depleted donor cells from BALB/c mice.

The mark [2] stands for this setting: combined exposure to conidia and peptide.

Regarding `Oc1ccc(-c2nc(-c3ccncc3)c(-c3ccc(F)cc3)[nH]2)cc1` [SB202190], the “effect of inhibitor on the effect of TA1 on DCs” value in the experiment with p38 and NF-kB (inhibitor given with TA1) is “ablate the effect of TA1 on DCs”.

Consider “Ac-Ala-Lys-Ser-Asp-Val-Lys-Ala-Glu-Thr-Ser-Ser-Glu-Ile-Asp-Thr-Thr-Glu-Leu-Asp-Glu-Lys-Val-Glu-Val-Lys-Ala-Asn-Glu-OH (Ac-AKSDVKAETSSEIDTTELDEKVEVKANE-OH) [scrambled peptide]”, for which, in the experiment with p38 and NF-kB (peptide alone, 20 minutes), the p38 phosphorylation entry is listed as “not stimulated”. The p38 phosphorylation result in the experiment on p38 and NF-kB (scrambled peptide plus conidia) is listed as “not stimulated”. Moreover, in experiment [1], the “HLA Class II antigens and costimulatory molecule expression” value is “failed to up-regulate”; the “cytokine production by DCs” value is listed as “failed”. In the experiment with murine DCs (setting [2]), the “expression of TLR2” value is “failed to activate” and the “expression of TLR9” value was “failed to activate”. Moreover, in the experiment with murine DCs (peptide alone), the “expression of TLR2” value is recorded as “failed to activate” and the “expression of TLR9” value is reported as “failed to activate”.

B1: G-CSF: human recombinant G-CSF, known to accelerate neutrophil recovery in mice (protein, UniProt P09919 31-207, looked up)
Granulocyte …: TPLGPASSLPQSFLLKCLEQVRKIQGDGAALQEKLVSECATYKLCHPEELVLLGHSLGIPWAPLSSCPSQALQLAGCLSQLHSGLFLYQGLLQALEGISPELGPTLDTLQLDVADFATTIWQQMEELGMAPALQPTQGAMPAFASAFQRRAGGVLVASHLQSFLEVSYRVLRHLAQP
B1: the “antifungal resistance by recovery from neutropenia alone, compared with TA1” value in the experiment on A. fumigatus is listed as “not sufficient”.

Values taken from patent US8389680B2, “Treatment of Aspergillus infections with alpha thymosin peptides” (SciClone Pharmaceuticals, Inc., priority 2003, dated 2013).
